Patent publication US8153818B2, “Triazolyl phenyl benzenesulfonamides” (ChemoCentryx, Inc., priority 2006, dated 2012)

What follows are compounds tested against T1, CCR9 (Homo sapiens, UniProt P51686) (assay: CCR9 activity in one of the chemotaxis, binding or calcium mobilization assays). Settings: assay not specified per compound.
T1 construct: chemokine expressing cells (such as THP-1 cells for CCR2 assay or MOLT-4 cells for CCR9 assay); host or cells: MOLT-4
T1 sequence (P51686 1-369): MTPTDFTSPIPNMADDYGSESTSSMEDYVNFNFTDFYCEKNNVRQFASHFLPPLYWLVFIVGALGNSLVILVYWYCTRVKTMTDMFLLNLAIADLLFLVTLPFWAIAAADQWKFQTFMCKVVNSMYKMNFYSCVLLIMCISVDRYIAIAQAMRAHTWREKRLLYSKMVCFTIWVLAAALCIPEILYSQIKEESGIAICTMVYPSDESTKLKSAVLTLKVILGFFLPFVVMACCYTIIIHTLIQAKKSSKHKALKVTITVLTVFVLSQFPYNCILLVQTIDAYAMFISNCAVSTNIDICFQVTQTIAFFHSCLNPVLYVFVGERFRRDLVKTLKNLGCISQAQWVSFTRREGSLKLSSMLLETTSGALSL
Format: cell-based
Experimental: Conventional migration assay was used to determine the efficacy of potential receptor antagonists in blocking migration mediated through chemokines (such as CCR2 or CCR9). This assay was routinely performed using the ChemoTX® microchamber system with a 5-μm pore-sized polycarbonate membrane. To begin such an assay, chemokine expressing cells (such as THP-1 cells for CCR2 assay or MOLT-4 cells for CCR9 assay) were harvested by centrifugation of cell suspension at 1000 RPM on a GS-6R Beckman centrifuge. The cell pellet was resuspended in chemotaxis buffer (HBSS with 0.1% BSA) at 10×10^6 cells/mL for CCR2 assay (5×10^6 cells/mL for CCR9 assay). Test compounds at desired concentrations were prepared from 10 mM stock solutions by serial dilutions in chemotaxis buffer. An equal volume of cells and compounds were mixed and incubated at room temperature for 15 minutes. Afterwards, 20 μL of the mixture was transferred onto the porous membrane of a migration microchamber, with 29 μL of chemokine ligand (0.1 nM chemokine MCP-1 protein for CCR2 assay or […] chemokine TECK protein for CCR9 assay) placed at the lower chamber. Following an incubation at 37° C. (90-minute for CCR2; 150-minute for CCR9), during which cells migrated against the chemokine gradient, the assay was terminated by removing the cell drops from atop the filter. To quantify cells migrated across the membrane, 5 μL of 7×CyQUANT® solution was added to each well in the lower chamber, and the fluorescence signal measured on a Spectrafluor Plus fluorescence plate reader (TECAN, Durham, N.C.). The degree of inhibition was determined by comparing migration signals between compound-treated and untreated cells. IC50 calculation was further performed by non-linear squares regression analysis using Graphpad Prism (Graphpad Software, San Diego, Calif.).
Calcium flux assay measures an increase in intracellular calcium following ligand-induced receptor activation. In the screen of chemokine antagonists, it was used as a secondary assay carried out on a FLIPR® machine (Molecular Devices, Mountain View, Calif.). To begin an assay, chemokine expressing cells (such as THP-1 cells for CCR2 assay or MOLT-4 cells for CCR9 assay) were harvested by centrifugation of cell suspension, and resuspended to 1.5×10^6 cells/mL in HBSS (with 1% fetal calf serum). Cells were then labeled with a calcium indicator dye Fluo-4 AM for 45 minutes at 37° C. with gentle shaking. Following incubation, cells were pelletted, washed once with HBSS and resuspended in the same buffer at a density of 1.6×10^6 cells/mL. One hundred microliters of labeled cells were mixed with 10 μL of test compound at the appropriate concentrations on an assay plate. Chemokine protein (MCP-1 at a final concentration of 0.1 nM for CCR2 assay or TECK at a final concentration of 25 nM for CCR9 assay) to activate the receptor. The degree of inhibition was determined by comparing calcium signals between compound-treated and untreated cells. IC50 calculations were further performed by non-linear squares regression analysis using Graphpad Prism (Graphpad Software, San Diego, Calif.). […]
In the tables below, structures and activity are provided for representative compounds described herein. Activity is provided as follows for either or both of the chemotaxis assay and/or calcium mobilization assays, described above.

| Compound | IC50 |
| --- | --- |
| CC(C)n1cnnc1-c1cc(Cl)ccc1NS(=O)(=O)c1ccc(C(C)(C)C)cc1 [Compound 1, 4-tert-butyl-N-(4-chloro-2-(4-isopropyl-4H-1,2,4-triazol-3-yl)phenyl)benzenesulfonamide] | < 1000 nM |
| CC(C)(C)c1ccc(S(=O)(=O)Nc2ccc(Cl)cc2-c2nncn2-c2ccccc2)cc1 [Compound 2, 4-tert-butyl-N-(4-chloro-2-(4-phenyl-4H-1,2,4-triazol-3-yl)phenyl)benzenesulfonamide] | < 1000 nM |
| Cc1nnc(-c2cc(Cl)ccc2NS(=O)(=O)c2ccc(C(C)(C)C)cc2)n1C(C)C [Compound 3, 4-tert-butyl-N-(4-chloro-2-(4-isopropyl-5-methyl-4H-1,2,4-triazol-3-yl)phenyl)benzenesulfonamide] | < 1000 nM |
| Cc1nnc(-c2cc(Cl)ccc2NS(=O)(=O)c2ccc(C(C)(C)C)cc2)n1-c1ccccc1 [Compound 4, 4-tert-butyl-N-(4-chloro-2-(5-methyl-4-phenyl-4H-1,2,4-triazol-3-yl)phenyl)benzenesulfonamide] | < 1000 nM |
| CCn1c(C)nnc1-c1cc(Cl)ccc1NS(=O)(=O)c1ccc(C(C)(C)C)cc1 [Compound 5, 4-tert-butyl-N-(4-chloro-2-(4-ethyl-5-methyl-4H-1,2,4-triazol-3-yl)phenyl)benzenesulfonamide] | < 1000 nM |
| Cc1nnc(-c2cc(Cl)ccc2NS(=O)(=O)c2ccc(C(C)(C)C)cc2)n1C [Compound 6, 4-tert-butyl-N-(4-chloro-2-(4,5-dimethyl-4H-1,2,4-triazol-3-yl)phenyl)benzenesulfonamide] | < 1000 nM |
| Cc1nnc(-c2cc(Cl)ccc2NS(=O)(=O)c2ccc(C(C)(C)C)cc2)n1C1CC1 [Compound 7, 4-tert-butyl-N-(4-chloro-2-(4-cyclopropyl-5-methyl-4H-1,2,4-triazol-3-yl)phenyl)benzenesulfonamide] | < 1000 nM |
| CC(C)c1nnc(-c2cc(Cl)ccc2NS(=O)(=O)c2ccc(C(C)(C)C)cc2)n1C [Compound 8, 4-tert-butyl-N-(4-chloro-2-(5-isopropyl-4-methyl-4H-1,2,4-triazol-3-yl)phenyl)benzenesulfonamide] | < 1000 nM |
| Cn1c(-c2cc(Cl)ccc2NS(=O)(=O)c2ccc(C(C)(C)C)cc2)nnc1C1CCOCC1 [Compound 9] | < 1000 nM |
| COCc1nnc(-c2cc(Cl)ccc2NS(=O)(=O)c2ccc(C(C)(C)C)cc2)n1C [Compound 10, 4-tert-butyl-N-(4-chloro-2-(5-(methoxymethyl)-4-methyl-4H-1,2,4-triazol-3-yl)phenyl)benzenesulfonamide] | < 1000 nM |
| CC(C)c1nnc(-c2cc(Cl)ccc2NS(=O)(=O)c2ccc(C(C)(C)C)cc2)n1C(C)C [Compound 11, 4-tert-butyl-N-(4-chloro-2-(4,5-diisopropyl-4H-1,2,4-triazol-3-yl)phenyl)benzenesulfonamide] | < 1000 nM |
| Cc1nnc(-c2cc(Cl)ccc2NS(=O)(=O)c2ccc(C(C)(C)C)cc2)n1C1CCOCC1 [Compound 12] | < 1000 nM |
| CCc1nnc(-c2cc(Cl)ccc2NS(=O)(=O)c2ccc(C(C)(C)C)cc2)n1C(C)C [Compound 13, 4-tert-butyl-N-(4-chloro-2-(5-ethyl-4-isopropyl-4H-1,2,4-triazol-3-yl)phenyl)benzenesulfonamide] | < 1000 nM |
| Cc1nnc(-c2cc(Cl)ccc2NS(=O)(=O)c2ccc(C(C)(C)C)cc2)n1C1CCCC1 [Compound 14, 4-tert-butyl-N-(4-chloro-2-(4-cyclopentyl-5-methyl-4H-1,2,4-triazol-3-yl)phenyl)benzenesulfonamide] | < 1000 nM |
| Cc1nnc(-c2cc(Cl)ccc2NS(=O)(=O)c2ccc(OC(C)C)cc2)n1C(C)C [Compound 15, N-(4-chloro-2-(4-isopropyl-5-methyl-4H-1,2,4-triazol-3-yl)phenyl)-4-isopropoxybenzenesulfonamide] | < 1000 nM |
| Cc1nnc(-c2cc(Cl)ccc2NS(=O)(=O)c2ccc(C(C)(C)C)cc2)n1-c1cc[nH]n1 [Compound 16] | < 1000 nM |
| CCn1c(C)nnc1-c1cc(Cl)ccc1NS(=O)(=O)c1ccc(OC(C)C)cc1 [Compound 17, N-(4-chloro-2-(4-ethyl-5-methyl-4H-1,2,4-triazol-3-yl)phenyl)-4-isopropoxybenzenesulfonamide] | < 1000 nM |
| CC(C)n1cnnc1-c1ccc(Cl)cc1NS(=O)(=O)c1ccc(C(C)(C)C)cc1 [Compound 18, 4-tert-butyl-N-(5-chloro-2-(4-isopropyl-4H-1,2,4-triazol-3-yl)phenyl)benzenesulfonamide] | < 1000 nM |
| Cc1nnc(-c2cc(Cl)ccc2NS(=O)(=O)c2ccc(C(C)(C)C)cc2)n1CC(C)C [Compound 19, 4-tert-butyl-N-(4-chloro-2-(4-isobutyl-5-methyl-4H-1,2,4-triazol-3-yl)phenyl)benzenesulfonamide] | < 1000 nM |
| Cc1nnc(-c2cc(Cl)ccc2NS(=O)(=O)c2ccc(C(C)(C)C)cc2)n1C1CCNCC1 [Compound 20] | < 1000 nM |
| COCc1nnc(-c2cc(Cl)ccc2NS(=O)(=O)c2ccc(C(C)(C)C)cc2)n1C1CCOCC1 [Compound 21, 4-tert-butyl-N-(4-chloro-2-(5-(methoxymethyl)-4-(tetrahydro-2H-pyran-4-yl)-4H-1,2,4-triazol-3-yl)phenyl)benzenesulfonamide] | < 1000 nM |
| CCn1cnnc1-c1cc(F)c(F)cc1NS(=O)(=O)c1ccc(C(C)(C)C)cc1 [Compound 22, 4-tert-butyl-N-(2-(4-ethyl-4H-1,2,4-triazol-3-yl)-4,5-difluorophenyl)benzenesulfonamide] | < 1000 nM |
| CCn1cnnc1-c1ccc(F)cc1NS(=O)(=O)c1ccc(C(C)(C)C)cc1 [Compound 23, 4-tert-butyl-N-(2-(4-ethyl-4H-1,2,4-triazol-3-yl)-5-fluorophenyl)benzenesulfonamide] | < 1000 nM |
| Cc1nnc(-c2ccc(F)cc2NS(=O)(=O)c2ccc(C(C)(C)C)cc2)n1C(C)C [Compound 24, 4-tert-butyl-N-(5-fluoro-2-(4-isopropyl-5-methyl-4H-1,2,4-triazol-3-yl)phenyl)benzenesulfonamide] | < 1000 nM |
| CCn1cnnc1-c1c(NS(=O)(=O)c2ccc(C(C)(C)C)cc2)ccc(Cl)c1F [Compound 25, 4-tert-butyl-N-(4-chloro-2-(4-ethyl-4H-1,2,4-triazol-3-yl)-3-fluorophenyl)benzenesulfonamide] | < 1000 nM |
| Cc1nnc(-c2cc(Cl)ccc2NS(=O)(=O)c2ccc(C(C)(C)C)cc2)n1[C@@H](C)CO [Compound 26] | < 1000 nM |
| CC(=O)NCCn1c(C)nnc1-c1cc(Cl)ccc1NS(=O)(=O)c1ccc(C(C)(C)C)cc1 [Compound 27, N-(2-(3-(2-(4-tert-butylphenylsulfonamido)-5-chlorophenyl)-5-methyl-4H-1,2,4-triazol-4-yl)ethyl)acetamide] | < 1000 nM |
| Cc1nnc(-c2c(NS(=O)(=O)c3ccc(C(C)(C)C)cc3)ccc(Cl)c2F)n1C [Compound 28, 4-tert-butyl-N-(4-chloro-2-(4,5-dimethyl-4H-1,2,4-triazol-3-yl)-3-fluorophenyl)benzenesulfonamide] | < 1000 nM |
| CCn1c(C)nnc1-c1c(NS(=O)(=O)c2ccc(C(C)(C)C)cc2)ccc(Cl)c1F [Compound 29, 4-tert-butyl-N-(4-chloro-2-(4-ethyl-5-methyl-4H-1,2,4-triazol-3-yl)-3-fluorophenyl)benzenesulfonamide] | < 1000 nM |
| Cn1cnnc1-c1cc(Cl)ccc1NS(=O)(=O)c1ccc(C(C)(C)C)cc1 [Compound 30, 4-tert-butyl-N-(4-chloro-2-(4-methyl-4H-1,2,4-triazol-3-yl)phenyl)benzenesulfonamide] | < 1000 nM |
